Consider two sequences from patent US11821903B2, “Sensor” (The University of Bristol, priority 2017, dated 2023).

Some results are limits rather than exact numbers.

This assay in a line: Binding of reporter dye prodan to the lumen of alpha helical barrels (fluorescence titration). The note with it: dissociation constant of prodan (1 μM) with alpha helical barrel 0.5-500 μM, up to 2 hours, fluorescent signal. On the procedure: The dyes 1,6-diphenyl-1,3,5-hexatriene (DPH) and 6-propionyl-2-dimethylaminonaphthalene (prodan) were assayed against a number of alpha helical barrels to determine their dissociation constants, KD. DPH or prodan (1 μM) was incubated with varying concentrations of alpha helical barrel (0.5-500 μM) for up to 2 hours, and the fluorescent signal measured at the corresponding emission wavelength.

A word on the Kd: it is the free concentration of one partner at which half of the binding sites on the other are occupied at equilibrium, for simple one-to-one binding. A low value points to a tighter complex. With “GELKAIAQELKAIAKELKAIAWELKAIAQG [CC-Hex, forms alpha helical barrel with 6 helices]”, the Kd was greater than 500 µM and the “Prodan KD” value is “did not bind”.
The matching figures for “GKIEQILQKIEKILQKIEWILQKIEQILQG [CC-Pent, forms alpha helical barrel with 5 helices]”: greater than 500 µM and “did not bind”.
